One compound from patent US20010011137A1, “Use of triphenylmethyl-1,2,3-triazoles” (priority 1996, published 2001) can be followed below.

Usually melting point stands for the temperature of the solid-liquid transition. The compound `Clc1ccccc1C(c1ccccc1)(c1ccccc1)n1ccnn1` [Example 10, 1-(2-chlorotrityl)-1H-1,2,3-triazole] gave a melting point of 162 °C.
